Experiments:
Type in all cases: functional
Oryctolagus cuniculus [1] = species on record: Oryctolagus cuniculus; test: Maximum platelet aggregation units at 1.3*10e-5 molar concentration was determined.
Rattus norvegicus = species on record: Rattus norvegicus; test: Hypotensive activity of compound was determined in hypertensive rats, as dose required to decrease the mean arterial blood pressure 50 mmHg was determined
Oryctolagus cuniculus [2] = species on record: Oryctolagus cuniculus; test: Effective concentration required to produce 50% of the maximum platelet aggregation using rabbit platelet-rich plasma was determined.
[3] = Ratio of MABP to that of platelet EC50 of the compound.
Oryctolagus cuniculus [4] = species on record: Oryctolagus cuniculus; test: Maximum platelet aggregation units at 5*10e-5 molar concentration was determined.
Oryctolagus cuniculus [5] = species on record: Oryctolagus cuniculus; test: Maximum platelet aggregation units at 1.9*10e-4 molar concentration was determined.
Oryctolagus cuniculus [6] = species on record: Oryctolagus cuniculus; test: Maximum platelet aggregation units at 5*10e-6 molar concentration was determined.
Oryctolagus cuniculus [7] = species on record: Oryctolagus cuniculus; test: Maximum platelet aggregation units at 5*10e-4 molar concentration was determined.

EC50 (Oryctolagus cuniculus [2])	SMILES	Max aggregation response (Oryctolagus cuniculus [1])	Dose (Rattus norvegicus)	Ratio [3]	Max aggregation response (Oryctolagus cuniculus [4])	Max aggregation response (Oryctolagus cuniculus [5])	Max aggregation response (Oryctolagus cuniculus [6])	Max aggregation response (Oryctolagus cuniculus [7])
11000 nM	CCCCCCCCCCCCCCCCOC(C)(C)C(COP(=O)([O-])OCC[N+](C)(C)C)OC(C)=O (centres undefined)		0.8757 mg/kg	0.8	64			
3200 nM	CCCCCCCCCCCCCCCCOCC(OC(C)=O)C(C)OP(=O)([O-])OCC[N+](C)(C)C (centres undefined)		0.0634 mg/kg	0.2		70		
1400 nM	CCCCCCCCCCCCCCCCOCC(CCOP(=O)([O-])OCC[N+](C)(C)C)OC(C)=O (centres undefined)		0.0475 mg/kg	0.34			65	
1500 nM	CCCCCCCCCCCCCCCCOCCC(COP(=O)([O-])OCC[N+](C)(C)C)OC(C)=O (centres undefined)		0.0243 mg/kg	0.16		50		
510 nM	CCCCCCCCCCCCCCCCOC(C)C(COP(=O)([O-])OCC[N+](C)(C)C)OC(C)=O (centres undefined)		0.00712 mg/kg	0.14				65

SMILES	EC50 (Oryctolagus cuniculus [2])	Max aggregation response (Oryctolagus cuniculus [1])	Dose (Rattus norvegicus)	Ratio [3]	Max aggregation response (Oryctolagus cuniculus [4])	Max aggregation response (Oryctolagus cuniculus [5])	Max aggregation response (Oryctolagus cuniculus [6])	Max aggregation response (Oryctolagus cuniculus [7])
CCCCCCCCCCCCCCCCOCC(COP(=O)([O-])OCC[N+](C)(C)C)OC(C)=O (centres undefined) [PLATELET ACTIVATING FACTOR]	19.4 nM	75	0.00125 mg/kg	0.65				
